Columns and labels:
hypothalamic slices = hypothalamic slices in vitro; cited from earlier work
hNPY2R [1] = target: T1, hNPY2R (Homo sapiens, UniProt P49146); assay: CaFlux Assay (FLIPR), Y2R; assay type: cell-based; design: expressed in transfected cells; host or cells: HEK-293 stably transfected with G protein chimera Gαqi9
T1 sequence (P49146 1-381): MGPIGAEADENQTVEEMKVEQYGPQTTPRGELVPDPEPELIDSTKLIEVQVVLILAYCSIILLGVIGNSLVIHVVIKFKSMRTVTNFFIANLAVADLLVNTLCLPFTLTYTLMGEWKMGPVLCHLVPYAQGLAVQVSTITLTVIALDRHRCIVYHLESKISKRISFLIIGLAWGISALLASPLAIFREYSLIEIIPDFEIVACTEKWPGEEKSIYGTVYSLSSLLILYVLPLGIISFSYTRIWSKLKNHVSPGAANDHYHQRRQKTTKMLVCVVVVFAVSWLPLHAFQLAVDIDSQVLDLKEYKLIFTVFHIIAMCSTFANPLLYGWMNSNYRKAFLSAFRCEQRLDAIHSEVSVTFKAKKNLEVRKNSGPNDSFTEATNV
Method in brief: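 Intracellular calcium mobilisation was measured in HEK-293 cells engineered with Gαqi9 and the relevant receptor; responses were normalised as % of maximal positive-control signal.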

Y1R = target: T2, Y1R (Homo sapiens, UniProt P25929); assay: CaFlux Assay (FLIPR), Y1R; assay type: cell-based
T2 sequence (P25929 1-384): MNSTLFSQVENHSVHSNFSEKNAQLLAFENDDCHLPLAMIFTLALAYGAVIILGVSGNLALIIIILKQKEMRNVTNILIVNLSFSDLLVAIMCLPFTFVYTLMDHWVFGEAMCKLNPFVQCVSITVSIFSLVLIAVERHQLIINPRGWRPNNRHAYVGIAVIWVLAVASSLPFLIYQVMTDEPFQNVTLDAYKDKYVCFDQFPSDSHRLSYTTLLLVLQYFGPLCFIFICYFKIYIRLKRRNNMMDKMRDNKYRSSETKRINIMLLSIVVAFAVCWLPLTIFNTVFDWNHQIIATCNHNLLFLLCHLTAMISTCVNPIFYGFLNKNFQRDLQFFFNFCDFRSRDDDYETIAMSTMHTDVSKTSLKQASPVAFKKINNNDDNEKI

Y4R = Y4R (Homo sapiens, UniProt P50391); assay: CaFlux Assay (FLIPR), Y4R; assay type: cell-based
Y5R = target: T3, Y5R (Homo sapiens, UniProt Q15761); assay: CaFlux Assay (FLIPR), Y5R; assay type: cell-based
T3 sequence (Q15761 1-445): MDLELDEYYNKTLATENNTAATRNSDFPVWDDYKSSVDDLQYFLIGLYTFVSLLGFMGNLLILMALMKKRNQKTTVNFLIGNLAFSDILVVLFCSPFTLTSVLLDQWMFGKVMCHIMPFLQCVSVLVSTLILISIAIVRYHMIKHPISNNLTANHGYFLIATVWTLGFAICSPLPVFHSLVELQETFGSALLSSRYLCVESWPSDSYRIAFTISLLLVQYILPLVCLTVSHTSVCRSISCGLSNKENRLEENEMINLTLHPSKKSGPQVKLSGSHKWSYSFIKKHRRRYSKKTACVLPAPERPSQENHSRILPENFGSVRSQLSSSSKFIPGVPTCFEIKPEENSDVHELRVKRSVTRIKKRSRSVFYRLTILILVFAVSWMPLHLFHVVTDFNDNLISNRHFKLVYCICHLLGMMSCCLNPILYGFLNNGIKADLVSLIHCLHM

hNPY2R [2] = target: T1, hNPY2R; assay: cAMP Agonist Assay, HEK293/hNPY2R; assay type: cell-based; design: expressed in transfected cells; host or cells: HEK293/hNPY2R (G418 selection)
Method in brief: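 Intracellular cAMP quantified by luminescent competitive ELISA after a 30 min room-temperature treatment of overnight-plated HEK293/hNPY2R cells with compound in medium containing 5 μM forskolin, 0.5 mM IBMX and 1.1% DMSO; four replicates per concentration.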

Sequence of Y4R (P50391 whole entry): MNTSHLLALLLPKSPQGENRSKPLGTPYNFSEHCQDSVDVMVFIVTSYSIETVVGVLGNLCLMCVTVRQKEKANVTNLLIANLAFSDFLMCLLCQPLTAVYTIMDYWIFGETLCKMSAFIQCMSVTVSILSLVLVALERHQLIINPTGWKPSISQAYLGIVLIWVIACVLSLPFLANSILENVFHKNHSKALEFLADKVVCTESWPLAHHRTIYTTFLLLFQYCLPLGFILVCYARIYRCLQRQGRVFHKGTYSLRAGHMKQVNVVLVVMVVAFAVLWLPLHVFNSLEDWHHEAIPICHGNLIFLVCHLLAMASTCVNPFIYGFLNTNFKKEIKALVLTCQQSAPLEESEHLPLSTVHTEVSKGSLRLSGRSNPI

Row | Structure (SMILES) | NPY release (hypothalamic slices) | EC50 (hNPY2R [1]) [nM] | EC50 (Y1R) [nM] | EC50 (Y4R) [nM] | EC50 (Y5R) [nM] | EC50 (hNPY2R [2]) [nM]
1 | N=C(N)NCCC[C@H](NC(=O)CC1(CC(=O)N2CCN(C3c4ccccc4NC(=O)c4ccccc43)CC2)CCCC1)C(=O)NCCn1c(=O)n(-c2ccccc2)n(-c2ccccc2)c1=O (stereo partly drawn) [BIIE0246] | increases NPY release | – | – | – | – | –
2 | CCCCCCCCCCCCCCCCCCCC(=O)N[C@@H](CCC(=O)N[C@@H](CCC(=O)N[C@H](C(=O)N[C@@H](CCCCNC(=O)CCOCCOCCOCCOCCOCCOCCOCCOCCOCCOCCOCCOCCOCCOCCOCCOCCOCCOCCOCCOCCOCCOCCOCCOC)C(=O)N1CCN(c2ccc3ncn(CC(=O)N[C@@H](CCCNC(N)=O)C(=O)N[C@@H](Cc4c[nH]cn4)C(=O)N[C@@H](Cc4ccc(O)cc4)C(=O)N[C@@H](CC(C)C)C(=O)N[C@@H](CC(N)=O)C(=O)N[C@@H](Cc4c[nH]c5ccccc45)C(=O)N[C@H](C(=O)N[C@H](C(=O)N[C@@H](CCCNC(=N)N)C(=O)N[C@@H](CCC(N)=O)C(=O)N(C)[C@@H](CCCNC(=N)N)C(=O)N[C@@H](Cc4ccc(O)cc4)C(N)=O)[C@@H](C)O)C(C)C)c(=O)c3c2)CC1)[C@@H](C)CC)C(=O)O)C(=O)O [Example 61] | – | 0.243 | > 6000 | > 6000 | > 6000 | 0.28
